The numbers were not newly measured in US9173863B2, “Antiviral compound and COX-2 inhibitor combination therapy for functional somatic syndromes, including combination of famciclovir and celecoxib” (INNOVATIVE MED CONCEPTS, LLC, priority 2012, dated 2015), which cites them from elsewhere.

In the data set the test system is fibromyalgia patients. The following applies: valacyclovir alone.

Regarding `CC(C)[C@H](N)C(=O)OCCOCn1cnc2c(=O)[nH]c(N)nc21` [valacyclovir], the “Treatment outcome in fibromyalgia patients” value is reported as “not successful”.
